Assay results published in the supplement of paper PMC11451515.

Tested on: SEM cells
Experiment: cell viability relative to DMSO control; higher = less cytotoxic
Settings: 48 h
Method in brief: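 NOMO1 or SEM cells were plated at 500 cells/well and P12-Ichikawa cells at 1000 cells/well in 1536-well plates (5 μl), after each leukemia line had been adapted for at least four passages in each medium. Pin dosing delivered library compounds in DMSO at 11 threefold concentrations, 47 μM to 0.79 nM. CellTiter-Glo One luminescence was read after 48 h at 37°C. Viability is reported as a per-plate percentage of DMSO wells, with cell-free wells as background.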

[1] = HPLM + 10% dialyzed FBS, 0.000781 µM
[2] = HPLM + 10% dialyzed FBS, 0.00234 µM
[3] = HPLM + 10% dialyzed FBS, 0.00702 µM
[4] = HPLM + 10% dialyzed FBS, 0.0211 µM
[5] = HPLM + 10% dialyzed FBS, 0.0632 µM
[6] = HPLM + 10% dialyzed FBS, 0.19 µM
[7] = HPLM + 10% dialyzed FBS, 0.569 µM
[8] = HPLM + 10% dialyzed FBS, 1.71 µM
[9] = HPLM + 10% dialyzed FBS, 5.12 µM
[10] = HPLM + 10% dialyzed FBS, 15.4 µM
[11] = HPLM + 10% dialyzed FBS, 46.1 µM
[12] = RPMI 5 mM glucose + 10% FBS, 0.000781 µM
[13] = RPMI 5 mM glucose + 10% FBS, 0.00234 µM
[14] = RPMI 5 mM glucose + 10% FBS, 0.00702 µM
[15] = RPMI 5 mM glucose + 10% FBS, 0.0211 µM
[16] = RPMI 5 mM glucose + 10% FBS, 0.0632 µM
[17] = RPMI 5 mM glucose + 10% FBS, 0.19 µM
[18] = RPMI 5 mM glucose + 10% FBS, 0.569 µM
[19] = RPMI 5 mM glucose + 10% FBS, 1.71 µM
[20] = RPMI 5 mM glucose + 10% FBS, 5.12 µM
[21] = RPMI 5 mM glucose + 10% FBS, 15.4 µM
[22] = RPMI 5 mM glucose + 10% FBS, 46.1 µM
[23] = RPMI 5 mM glucose + 10% dialyzed FBS, 0.000781 µM
[24] = RPMI 5 mM glucose + 10% dialyzed FBS, 0.00234 µM
[25] = RPMI 5 mM glucose + 10% dialyzed FBS, 0.00702 µM
[26] = RPMI 5 mM glucose + 10% dialyzed FBS, 0.0211 µM
[27] = RPMI 5 mM glucose + 10% dialyzed FBS, 0.0632 µM
[28] = RPMI 5 mM glucose + 10% dialyzed FBS, 0.19 µM
[29] = RPMI 5 mM glucose + 10% dialyzed FBS, 0.569 µM
[30] = RPMI 5 mM glucose + 10% dialyzed FBS, 1.71 µM
[31] = RPMI 5 mM glucose + 10% dialyzed FBS, 5.12 µM
[32] = RPMI 5 mM glucose + 10% dialyzed FBS, 15.4 µM
[33] = RPMI 5 mM glucose + 10% dialyzed FBS, 46.1 µM

SMILES	cell viability [1]	cell viability [2]	cell viability [3]	cell viability [4]	cell viability [5]	cell viability [6]	cell viability [7]	cell viability [8]	cell viability [9]	cell viability [10]	cell viability [11]	cell viability [12]	cell viability [13]	cell viability [14]	cell viability [15]	cell viability [16]	cell viability [17]	cell viability [18]	cell viability [19]	cell viability [20]	cell viability [21]	cell viability [22]	cell viability [23]	cell viability [24]	cell viability [25]	cell viability [26]	cell viability [27]	cell viability [28]	cell viability [29]	cell viability [30]	cell viability [31]	cell viability [32]	cell viability [33]
CC(C)(C)c1[nH]cnc1/C=c1\[nH]c(=O)/c(=C/c2ccccc2)[nH]c1=O	102%	69%	20%	23.9%	24.3%	25.5%	24.3%	7.62%	4.47%	4.16%	3.59%	117%	85.4%	16.6%	14%	16.1%	17.9%	12.1%	4.12%	3.51%	2.93%	2.89%	106%	80%	17.5%	21.2%	23.4%	21.4%	19.5%	4.68%	3.49%	3.56%	3.02%
C\C1=C(\C=C(\C#N)C(=O)N1)C2=CC=NC=C2	82.7%	86.9%	91.6%	104%	101%	113%	99.3%	111%	96.7%	126%	113%	109%	92.5%	113%	109%	121%	112%	108%	112%	84.9%	122%	97.8%	115%	101%	111%	130%	118%	117%	96.4%	109%	105%	109%	114%
COCCCN1CCC(NC(=O)c2cc(Cl)c(N)c3c2OCC3)CC1	86.8%	90.1%	115%	116%	129%	123%	114%	119%	147%	123%	114%	110%	115%	116%	122%	149%	134%	130%	114%	147%	140%	111%	118%	119%	127%	114%	130%	143%	116%	156%	128%	143%	113%
CN(C)C1=CC=C(C=C1)C(C2=CC=C(C=C2)N(C)C)=C/3\C=C/C(/C=C3)=[N+](C)C	101%	98.3%	113%	98.1%	116%	9.97%	4.77%	4.38%	4.51%	1.71%	1.2%	–	–	–	–	–	–	–	–	–	–	–	104%	113%	100%	85.9%	76.1%	8.49%	4.28%	2.86%	4.04%	1.22%	0.974%
NC(=O)c1ccc(I)c([N+](=O)[O-])c1	104%	127%	108%	126%	126%	130%	133%	124%	123%	117%	123%	106%	124%	131%	137%	137%	143%	145%	156%	120%	104%	111%	97.6%	113%	124%	118%	123%	112%	116%	131%	115%	103%	99.8%
COc1ccc(C(C)=O)c(O)c1	93.7%	98.2%	110%	95.1%	94.2%	111%	108%	112%	114%	121%	112%	104%	121%	118%	124%	87.8%	114%	121%	137%	120%	118%	121%	105%	92.2%	118%	125%	108%	126%	102%	133%	132%	123%	117%
NC/1=N/C2=C([NH]C=N2)C(=S)N1	110%	57%	106%	115%	117%	114%	108%	117%	113%	110%	24.2%	114%	81.5%	117%	105%	119%	114%	102%	103%	102%	108%	16.1%	95.1%	81.6%	103%	118%	113%	103%	81%	37.7%	29.6%	33.5%	9.21%
CNC1CCC(N(Cc2cccc(-c3ccncc3)c2)C(=O)c2sc3c(F)ccc(F)c3c2Cl)CC1 (stereo unspecified)	80.2%	102%	106%	117%	103%	101%	102%	113%	93.3%	85.3%	53.2%	97.5%	101%	120%	105%	109%	95.9%	98%	110%	99.9%	92.3%	73.3%	93.7%	99.3%	113%	107%	104%	74.7%	101%	91.9%	90.3%	85.9%	69.2%
O=C(O)C1=NC(C(=O)O)CC(/C=C/N2c3cc(O)c(OC4OC(CO)C(O)C(O)C4O)cc3CC2C(=O)O)=C1 (stereo unspecified)	109%	106%	110%	109%	101%	113%	112%	104%	103%	95.9%	103%	102%	107%	101%	113%	101%	111%	115%	102%	102%	101%	97.2%	112%	113%	102%	118%	108%	112%	105%	96.4%	111%	105%	96.9%
O=C(Nc1ccc(F)c(C(F)(F)F)c1)Nc1nnc(-c2ccncc2)s1	–	–	–	–	–	–	–	–	–	–	–	99.6%	112%	104%	103%	107%	105%	88.9%	104%	105%	106%	92.8%	121%	114%	124%	113%	115%	117%	121%	104%	113%	125%	109%
CNc1nccc(-c2cccnc2Oc2cc(C(=O)Nc3cccc(C(F)(F)F)c3)ccc2C)n1	97.2%	101%	115%	113%	118%	104%	122%	113%	109%	90.2%	97.8%	106%	92.6%	99.8%	103%	111%	103%	113%	97.4%	95.9%	72.4%	92.9%	95.8%	97.4%	103%	107%	119%	125%	103%	107%	97.9%	82.9%	97%
COc1cc(OC)c(/C=C/[S+](=O)([O-])Cc2ccc(OC)c(NCC(=O)[O][Na])c2)c(OC)c1	123%	105%	125%	125%	118%	75.9%	29.5%	28.2%	27%	21.9%	13.4%	109%	107%	115%	112%	111%	66.3%	20%	17.8%	15.2%	9.59%	7.67%	121%	122%	122%	120%	121%	24.1%	24.3%	18.8%	10.1%	7.92%	8.13%
Cc1cnc(-c2cc(N3CCN(C(=O)CC[S+](C)(=O)[O-])CC3)ncc2Cl)c(C)c1	103%	102%	118%	119%	128%	122%	124%	130%	127%	125%	141%	115%	151%	119%	116%	118%	136%	135%	140%	140%	142%	136%	112%	115%	107%	133%	125%	132%	124%	141%	155%	143%	139%
C\C1=C(\C=C(C#N)/C(=O)N1)C2=C[N]3C=CN=C3C=C2	66.9%	77.5%	81.6%	75%	82.2%	72.6%	71.8%	87.4%	91.4%	83.3%	94.7%	73.7%	88%	82.8%	96.8%	90.4%	73.6%	94.6%	85.9%	102%	99.2%	89.6%	79.6%	72.2%	87.6%	88%	81.8%	77.7%	86.6%	98.8%	86.9%	93.4%	94%
Cn1cnc2c1c(=O)[nH]c(=O)n2C	97.5%	110%	103%	106%	116%	115%	112%	107%	94.1%	91%	5.76%	92.7%	85.2%	106%	101%	93.2%	107%	93%	94.3%	79.6%	61.8%	5.77%	95.3%	99%	90.9%	108%	111%	94.3%	108%	105%	96.8%	79.9%	6.67%
CCC(C)(Oc1ccc(C2(c3ccc(OC(C)(CC)C(=O)O)cc3)CCCCC2)cc1)C(=O)O (stereo unspecified)	103%	96.8%	108%	103%	109%	108%	105%	108%	101%	109%	77.9%	103%	101%	119%	113%	108%	111%	109%	91.3%	104%	102%	77.7%	117%	101%	99.1%	108%	107%	102%	118%	110%	114%	113%	86.6%
